Experimental data reported in PMC9698607, “Dual Functionalized Liposomes for Selective Delivery of Poorly Soluble Drugs to Inflamed Brain Regions” (Pharmaceutics, 2022).

How the values were obtained:
[1] = tested on: primary neurons; test: CCK8 cell viability assay on primary neurons; type: cell-based; conditions: primary mouse cortical neurons, 16 days in vitro; 24 h; 0.085, 0.85, 8.5 and 85 µM glibenclamide; compared with DMSO controls
Method: C57BL6J mice were maintained under pathogen-free conditions at San Raffaele Hospital mouse facility (Milan, Italy). Procedures were performed according to the guidelines of the Institutional Animal Care and Use Committee of the San Raffaele Scientific Institute and the Ministry of Health (protocol number 372/2021-PR). Primary neuronal cell cultures were established from C57Bl/6J E17.5 embryonic cerebral cortices (Charles River), according to our published protocol. Briefly, we dissected forebrains in cold HBSS supplemented with 0.6% glucose and 5 mM HEPES pH 7.4 to obtain cerebral cortices. Cortices were mechanically dissociated in single cell preparations and re-suspended in culture medium containing Neurobasal, 5 mM HEPES pH 7.4, 0.6% glucose and the 1× B27 supplement. Cells were plated at 30,000 cells/well on 96 multi wells previously coated with poly lysine (0.2 mg/mL), and primed with Dulbecco’s modified Eagle’s media (DMEM) 20% FBS. Cells were maintained in a humidified 5% CO2/95% air environment at 37 °C. […] Cell viability was measured using the Cell Counting Kit-8 (CCK8) Metabolic Assay Kit, following the manufacturer’s protocol (Sigma-Aldrich, Burlington, VT, USA). […] We measured samples absorbance every 30 min at 450 nm, using a Multiskan Sky (Thermo fisher scientific, Waltham, MA, USA). Absorbance readings were subsequently normalized to the mean value of the controls.

[2] = tested on: TNFα release from BV2 microglial cells; test: TNFα ELISA in LPS-stimulated BV2 cells; type: cell-based, mouse; conditions: free glibenclamide 10 to 80 μM for 60 h, then LPS for 8 h
Method: (§1) BV2 microglial cells, RAW264.7 and Neuro2A (N2A) cells were cultured in DMEM supplemented with 10% heat-inactivated FBS, 100 U/mL penicillin and 100 μg/mL streptomycin at 37 °C in a humidified 5% CO2 atmosphere. The day before the experiment, BV2 cells were plated on 24 well plates at 80,000 cells/well; LPS was dissolved in PBS as a stock solution (1 mg/mL), and stored at −20 °C. BV2 cells seeded into multiplates were exposed to LPS (0.5 µg/mL) in presence or absence of glibenclamide (40 µM), empty mApoE-MSLP1-liposomes and mApoE-MSLP1 loaded with glibenclamide. Cells were left in vitro for 40 or 60 h, treated with LPS for additional 8 h before using supernatants for an ELISA assessment of TNFα and IL-6. BV2 cells were seeded in 24-well plates at 80,000 cells/well, then treated with LPS (0.5 µg/mL) to induce TNFα and IL-6 production. Cells were treated for 8 h. Cytokine levels in cells supernatants collected before and after treatment were assayed using the mouse TNF-alpha DuoSet ELISA (R&D Systems, DY410) and the mouse IL-6 DuoSet ELISA kit (R&D Systems, DY406), according to manufacturer’s instructions.

[3] = tested on: IL-6 release from BV2 microglial cells; test: IL-6 ELISA in LPS-stimulated BV2 cells; type: cell-based, mouse; conditions: free glibenclamide 10 to 80 μM for 60 h, then LPS for 8 h
Method: as §1, with “BV2 cells seeded into multiplates were exposed to LPS (0.5 µg/mL) in presence or absence of glibenclamide (40 µM), empty mApoE-MSLP1-liposomes and mApoE-MSLP1 loaded with glibenclamide.” left out

[4] = tested on: primary neurons; test: LDH-Glo cytotoxicity assay on primary neurons; type: cell-based; conditions: primary mouse cortical neurons; 24 h; 0.085, 0.85, 8.5 and 85 µM glibenclamide; supernatants
Method: Primary neuronal cell cultures were established from C57Bl/6J E17.5 embryonic cerebral cortices (Charles River), according to our published protocol [37]. Briefly, we dissected forebrains in cold HBSS supplemented with 0.6% glucose and 5 mM HEPES pH 7.4 to obtain cerebral cortices. Cortices were mechanically dissociated in single cell preparations and re-suspended in culture medium containing Neurobasal, 5 mM HEPES pH 7.4, 0.6% glucose and the 1× B27 supplement. Cells were plated at 30,000 cells/well on 96 multi wells previously coated with poly lysine (0.2 mg/mL), and primed with Dulbecco’s modified Eagle’s media (DMEM) 20% FBS. […] Neurons were left to mature for 16 days, and upon visual inspection were used for cytotoxicity assays.
A bioluminescent lactate dehydrogenase (LDH)-release assay (LDH-Glo Cytotoxicity Assay, Promega) was used to assess cytotoxicity in supernatants of cells treated with liposomes according to manufacturer’s instruction. […] In each experiment, we calculated the % of cytotoxicity as follows:(Exp.LDH Release − MB)/(Max LDH Release Control − MB)(2) where MB is Medium Background.

[5] = biological target: T1, Recombinant human MMP2 (Homo sapiens, UniProt P08253); test: MMP2 activity assay on MSLPs (HPLC); type: biochemical; conditions: 48 h, 37 °C, 0.1 μg/mL rhMMP2, 100 μM MSLP, 50 mM Tris, 10 mM CaCl2, 150 mM NaCl, 0.05% Brij 35, pH 7.5
T1 construct: purchased R&D Systems
T1 sequence (P08253 110-660): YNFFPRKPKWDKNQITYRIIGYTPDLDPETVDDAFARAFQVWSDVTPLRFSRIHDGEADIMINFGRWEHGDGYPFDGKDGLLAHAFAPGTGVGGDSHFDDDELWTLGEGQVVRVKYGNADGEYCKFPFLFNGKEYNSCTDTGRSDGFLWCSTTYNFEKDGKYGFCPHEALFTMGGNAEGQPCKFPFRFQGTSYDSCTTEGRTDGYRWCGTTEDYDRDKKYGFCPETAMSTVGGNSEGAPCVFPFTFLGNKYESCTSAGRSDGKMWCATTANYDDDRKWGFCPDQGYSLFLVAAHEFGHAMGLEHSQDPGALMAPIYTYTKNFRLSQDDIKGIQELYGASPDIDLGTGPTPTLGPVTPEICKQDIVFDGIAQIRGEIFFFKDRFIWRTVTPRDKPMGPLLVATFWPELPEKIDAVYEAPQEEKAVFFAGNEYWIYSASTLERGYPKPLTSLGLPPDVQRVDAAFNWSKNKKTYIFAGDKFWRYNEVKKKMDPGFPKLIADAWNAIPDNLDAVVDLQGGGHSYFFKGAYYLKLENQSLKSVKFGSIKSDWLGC
Method: (§2) Recombinant human MMP2 (rhMMP2, R&D system, Minneapolis, MN, USA) was diluted to 0.2 μg/mL in 200 µL assay buffer (50 mm Tris, 10 mM CaCl2, 150 mm NaCl, 0.05% (w/v) Brij 35, pH 7.5). The enzymatic reaction was started by adding 200 μL of 200 μM MSLPs in the assay buffer, and was stirred at 37 °C for 48 h. Final concentrations were 0.1 μg/mL for MMP2 and 100 μM for MSLPs. The reaction was monitored by HPLC between 1 and 48 h on a small aliquot, by deactivating the enzyme with a 10% aqueous TFA solution. MSLPs’ solutions in assay buffer (see below) were used as a blank. A pronase/unspecific protease activity assay on MSLPs was carried out by diluting a mixture of proteolytic enzymes at 2 ng/mL, 0.2 µg/mL and 20 µg/mL in 200 µL assay buffer (50 mm Tris, 10 mm CaCl2, 150 mm NaCl, 0.05% (w/v) Brij 35, pH 7.5). The enzymatic reaction was started by adding 200 μL of 200 μM MSLPs in the assay buffer, and was stirred at 37 °C for 48 h. Final concentrations of 1 ng/mL, 0.1 μg/mL and 10 μg/mL (Pronase) and 100 μM (MSLPs) were used. The reaction was monitored by HPLC between 1 and 48 h on a small aliquot, by deactivating the enzymes with a 10% aqueous TFA solution. MSLPs’ solutions in assay buffer were used as a blank.

[6] = tested on: pronase; test: Pronase/unspecific protease activity assay on MSLPs (HPLC); type: biochemical; conditions: 100 μM MSLP, 37 °C, up to 48 h, assay buffer pH 7.5
Method: as §2

COc1ccc(Cl)cc1C(=O)NCCc1ccc(S(=O)(=O)NC(=O)NC2CCCCC2)cc1 [glibenclamide]
cell viability (CCK8) [1]: did not affect cell viability | TNFα levels [2]: dose-dependent reduction | IL-6 levels [3]: dose-dependent reduction | cytotoxicity (LDH release) [4]: did not increase cytotoxicity

SKK(stearate)GSALGQIGPSK(stearate)KS [c-MSLP]
HPLC peak of lipopeptide after incubation with MMP2 [5]: still present

SKK(stearate)SGAKPRA-LTASK(stearate)KS [MSLP-2, MMP2/9-responsive lipopeptide with two stearate tails]
cleavage by pronase ([6]; 10 μg/mL pronase): complete cleavage | change of intensity of HPLC peak with pronase ([6]; lower pronase concentrations (1 ng/mL, 0.1 μg/mL)): no significant change | HPLC peak of lipopeptide after incubation with MMP2 [5]: still present

SKK(stearate)SGPLGIAGQSK(stearate)KS [MSLP-1, MMP2-responsive lipopeptide with two stearate tails]
HPLC peak of lipopeptide after incubation with MMP2 [5]: completely disappeared
